Data on five compounds can be found in publication PMC9452909, “Monomethylsulochrin isolated from biomass extract of Aspergillus sp. against Leishmania amazonensis: In vitro biological evaluation and molecular docking” (Frontiers in Cellular and Infection Microbiology, 2022).

Values after ≈ are worked out from the molar mass of the structure shown. Read-outs that look alike come from different tables or passages of the source. Where only a bound is given, the exact number is not on record here.

What is called IC50 is the concentration needed to halve the response being measured. In general, CC50 refers to the concentration that lowers cell viability or growth by half. One may read the EC50 as the concentration at which the effect is half-maximal.

Data set [1] relates to L. mexicana promastigote forms. Further details: method as in Hay et al. (2008). The following applies: ref Hay et al. (2008); cited from earlier work.
Data set [2] deals with L. infantum intracellular amastigote forms. Further details: method as in Hay et al. (2008). The following applies: ref Hay et al. (2008); cited from earlier work.
Data set [3] has as its system L. infantum promastigote forms. Further details: method as in Hay et al. (2008). Conditions: ref Hay et al. (2008); cited from earlier work.
Data set [4] has as its system L. amazonensis intracellular amastigote. In words: Activity against intracellular amastigote in infected peritoneal macrophages. It counts as cell-based, Leishmania amazonensis. Conditions: 24 h; for IC50: Leishmania amazonensis, Peritoneal macrophage, in Mus musculus, read-out: L. amazonensis Intracellular amastigote IC50. Here is the method: The viability of parasites was evaluated after treatment by counting the total number of live promastigotes, considering the flagellar motility, using Neubauer’s camera and optical light microscope ([Rottini et al., 2019]). This count was compared with the score of non-treated promastigote growth. This experiment was carried out in independent triplicate with each condition performed in triplicate. […] Wells with medium and without parasites were used as blanks, and wells with parasites only incubated with medium were used as controls. […] After 6 h, the cells were washed three times with PBS to remove free parasites. […] For the light microscopy analysis, the coverslips with the infected and treated cells were then fixed with Bouin solution and stained with Giemsa. […] Parameters of infection analysis were performed according to [Silva-Silva et al. (2021a)].

The next data set can be described thus: Cytotoxicity assay (MTT). The data set is classed as cell-based. The following applies: mouse. Here is the method: The animals were stimulated by intraperitoneal inoculation of 3.0 ml of sodium thioglycolate at 3.0%. After 72 h of elicitation, the animals were euthanized with 10% ketamine (Syntec, São Paulo, BRA) and 2% xylazine (Syntec, São Paulo, BRA) according to the weight of each animal and, after death, the animal’s skin was retracted by incision and subsequent divulsion for peritoneum exposure. A total of 10.0 ml of sterile pH 7.2 phosphate-buffered saline (PBS) was inoculated, and a light manual massage was performed. The cells were then harvested from the peritoneum and dispensed in a sterile conical tube. The peritoneal lavage was centrifuged at 380g for 5 min, and cells were suspended in culture medium (RPMI 1640 medium supplemented with 10% FBS, penicillin [100 U/ml], and [100 μg/ml] streptomycin) and incubated at 37°C, 5% CO2 overnight ([Almeida-Souza et al., 2018]).
Wells without cells were used as blank, and wells with cells and 1% DMSO were used as control. After 24-h incubation period, cell viability was assessed by MTT. The cytotoxicity of 50% (CC50) was calculated following the method described elsewhere by [Oliveira et al. (2018)]. The selectivity index (SI) was obtained from the ratio of peritoneal macrophages CC50 and IC50.

The subject of data set [5] is L. amazonensis promastigote. Put plainly: Antileishmanial activity assay, promastigote forms (live parasite counting). The data set is classed as cell-based, Leishmania amazonensis. Conditions: 24 h; for IC50: Leishmania amazonensis, mean ± SD. Here is the method:
Promastigote forms of L. amazonensis H21 (MHOM/BR/76/MA-76) were cultured at 26°C in Schneider’s insect medium. The culture was supplemented with 10% FBS, 100 IU/ml of penicillin, and 100 µg/ml of streptomycin in a maximum of 10 in vitro passages ([Almeida-Souza et al., 2016]).
In 96-well plates, the promastigote forms of L. amazonensis (10^6 parasites/ml) from a 3- to 5-day-old culture were incubated for 24 h in the presence of different concentrations of pseurotin A at 7.24–579.5 μM and monomethylsulochrin at 9.0–721.9 μM, in a final volume of 100 µL per well. The viability of parasites was evaluated after treatment by counting the total number of live promastigotes, considering the flagellar motility, using Neubauer’s camera and optical light microscope ([Rottini et al., 2019]). This count was compared with the score of non-treated promastigote growth. This experiment was carried out in independent triplicate with each condition performed in triplicate. The results were expressed as parasite growth inhibitory concentration of 50% (IC50). Wells with medium and without parasites were used as blanks, and wells with parasites only incubated with medium were used as controls. […] Activity against intracellular amastigote was performed in 24-well plates, with coverslips, with peritoneal macrophages cultured (5 × 10^5 cells per well) and infected with promastigote forms of L. amazonensis using a ratio of 10:1 parasites per cell. After 6 h, the cells were washed three times with PBS to remove free parasites. […] For the light microscopy analysis, the coverslips with the infected and treated cells were then fixed with Bouin solution and stained with Giemsa. The IC50 values of all compounds tested were calculated from the total of intracellular amastigote from 100 cells. Parameters of infection analysis were performed according to [Silva-Silva et al. (2021a)].

Data set [6] concerns L. amazonensis promastigote forms. In words: Transmission electron microscopy, ultrastructural alterations. The data set is classed as cell-based, Leishmania amazonensis. Conditions: 18.04 µM (IC50), 24 h; p = 0.0016, 0.0016, 0.0480, 0.0079. On the procedure: The transmission electron microscopy was performed to evaluate if monomethylsulochrin induced any ultrastructural alterations to the L. amazonensis promastigote forms. Parasites were treated with monomethylsulochrin with IC50 for 24 h and fixed with 2.5% glutaraldehyde in sodium cacodylate buff;er (0.1 M, pH 7.2) for overnight, then washed three times with 0.1 M sodium cacodylate buffer and postfixed in a solution containing 1% osmium tetroxide, 0.8% ferrocyanide, and 5 mM calcium chloride. 0.1 M sodium cacodylate buffer was used for washing, before being dehydrated in graded acetone and embedded in EPON 812 resin. Ultrathin sections were stained with 5% uranyl acetate aqueous solution and lead citrate (1.33% lead nitrate and 1.76% sodium citrate) and examined in a JEM-1011 transmission electron microscope (JEOL, Tokyo, Japan) at 80 kV ([Silva-Silva et al., 2021b]). The images acquired were used for quantification of the number of vacuoles and lipid corpuscles and area of vacuoles, lipid corpuscles, and mitochondria, using ImageJ software (NIH). Quantitative analysis was conducted with five untreated parasites and at least 10 treated parasites. The number of vacuoles and lipid corpuscles was expressed as mean ± standard deviation (SD), and the area of vacuoles, lipid corpuscles, and mitochondria were expressed as percentage of each parasite total area.

For the next data set, the system named is bacteria. More on the design: method as in Zhang et al., 2014. Conditions: ref Zhang et al., 2014; cited from earlier work.
Data set [7] concerns L. amazonensis promastigote forms. In words: Flow cytometry with TMRE, mitochondrial membrane potential. Conditions: 24 h, p = 0.0286. It counts as cell-based, Leishmania amazonensis. On the procedure: Heat-killed parasites (60°C bath for 60 min) and untreated parasites were used as positive and negative controls, respectively. After incubation, parasites were centrifuged at 210g for 5 min at room temperature, washed in PBS, incubated with 300 μl of TMRE (50 nM) in the dark for 15 min, at room temperature, and submitted to flow cytometry through CytoFlex flow cytometer (Beckman Coulter Life Sciences, IN, USA). TMRE was excited by 488-nm blue laser, and its fluorescence was collected at 585/42 nm bandpass filter. CytExpert software version 2.1 (Beckman Coulter Life Sciences, IN, USA) was used for flow cytometry analyses ([Mondêgo-Oliveira et al., 2021]).

The subject of the next data set is fungi. More on the design: method as in Zhang et al., 2014. The following applies: ref Zhang et al., 2014; cited from earlier work.
Data set [8] relates to L. donovani amastigotes, axenically cultured (cell free). More on the design: method as in Martińez-Luis et al. (2012). The following applies: isolated from endophytic Aspergillus sp. strain F1544; ref Martińez-Luis et al. (2012); cited from earlier work.
The next data set deals with Leishmania. More on the design: method as in Campos et al., 2017. Conditions: ref Campos et al., 2017, cited from earlier work.
Where [9] appears, read: peritoneal macrophages (thioglycolate-elicited), BALB/c peritoneal macrophages, 24 h, MTT, mean ± SD, read-out: Cytotoxicity CC50.

As for `CC(C)=CCC/C(C)=C/Cc1c(O)cc(O)c(C(=O)c2ccccc2)c1O` [3-geranyl-2,4,6-trihydroxybenzophenone], the “IC50 against promastigote forms of L. mexicana” value in data set [1] was 4.05 µg/mL. The “IC50 against intracellular amastigote forms of L. infantum” value in [2] was 0.7 µg/mL. In addition, the “IC50 against promastigote forms of L. infantum” value in data set [3] was 15 µg/mL.

Consider `C[C@@H]1[C@H](O)[C@@H](C)/C=C/C=C/C=C/C=C/C=C/C=C/C=C/[C@H](O[C@@H]2O[C@H](C)[C@@H](O)[C@H](N)[C@@H]2O)C[C@@H]2O[C@](O)(C[C@@H](O)C[C@@H](O)[C@H](O)CC[C@@H](O)C[C@@H](O)CC(=O)O[C@H]1C)C[C@H](O)[C@H]2C(=O)O` [Amphotericin B, amphotericin B, reference compound], for which the “Infection parameters (all)” value in [4] (3 µM) is recorded as “significant reduction”. Besides, in data set [4], the “SIama (selectivity index = CC50 macrophages/IC50 amastigote forms)” value is 13.43 and the IC50 turned out to be 0.629 ± 1.39 µM. The same compound came in with a CC50 at 24 h in the data set “Cytotoxicity assay (MTT)” (BALB/c) of 8.45 ± 1.08 µM. In data set [5], the “SIpro (selectivity index = CC50 macrophages/IC50 promastigote forms)” value amounted to 312.96.

On to `COC(=O)c1cc(O)cc(OC)c1C(=O)c1c(O)cc(C)cc1OC` [Monomethylsulochrin, monomethylsulochrin], for which the “Ultrastructural changes: number of vacuoles, vacuoles area, lipid corpuscles area, mitochondria area” value in [6] is “statistically significant changes”. Moreover, the Antibacterial activity entry with bacteria is reported as “weak antibacterial activity”. Moreover, in [4] (6 µM, p = 0.0082, 0.0033, 0.0041), the “Parameters of infection (amastigote number in 100 cells, percentage of infected cells, mean of amastigotes per infected cell)” value is recorded as “statistically significant reduction”. Moreover, the “SIama (selectivity index = CC50 macrophages/IC50 amastigote forms)” value in data set [4] turned out to be 18.00. Further, in [4] (infected BALB/c peritoneal macrophages, mean ± SD), the IC50 stood at 5.09 ± 1.06 µM. Further, the CC50 at 24 h in the data set “Cytotoxicity assay (MTT)” (setting [9]) turned out to be 91.6 ± 1.28 µM. In addition, in [5], the “SIpro (selectivity index = CC50 macrophages/IC50 promastigote forms)” value amounted to 5.08 and half-maximal inhibition (IC50) required 18 ± 1.11 µM. The “Change in Δψm” value in data set [7] (18.04 µM) is “significant decrease”. The “Decrease in the mitochondrial membrane potential” value in data set [7] (IC50 concentration) amounted to 25.9%. Further, the Antifungal activity entry in the data set with fungi was “no antifungal activity”.

With `CC/C=C\[C@H](O)[C@H](O)C1=C(C)C(=O)[C@]2(O1)C(=O)N[C@@](OC)(C(=O)c1ccccc1)[C@@H]2O` [Pseurotin A, pseurotin A], in the data set “Cytotoxicity assay (MTT)” (setting [9]), the CC50 at 24 h was found to be 654.4 ± 1.19 µM. Also, the IC50 in data set [5] is > 500 µM. In addition, the “IC50 against axenically cultured (cell free) L. donovani amastigotes” value in data set [8] is 5.8 µg/mL (≈ 13.4 µM).

For “anhydrocochlioquinone A [anhydrocochlioquinone A (ANDC-A)]”, the “Leishmanicidal activity EC50” value in the data set with Leishmania is 22.4 µg/mL. In the data set with Leishmania (read-out: Leishmanicidal activity EC50), the EC50 is 44 µM.
